Experimental data from patent US20230331718A1, “COMPOSITIONS FOR MODULATING SPLICING” (Skyhawk Therapeutics, Inc., priority 2020, published 2023).
pEC50, pIC50: −log10 of the molar value.

How the values were obtained:
[1] = test system: SMN2 Splicing D7 (SMN Δ7 transcript); assay: SMN Quantitative Splicing Assay (qPCR); format: cell-based, human; conditions: 24 h, SMA patient fibroblasts (GM03813), 2.5 µM to 0.6 nM
Protocol: Spinal muscular atrophy (SMA) patient fibroblasts (GM03813, Coriell) were plated in 96-well plates at 50,000 cells/well. […] Treated cells were lysed and cDNA synthesized using the Fast Advanced Cells-to-Ct kit (Thermofisher A35378) according to the manufacturer’s instructions. 2 µL of each cDNA were used in qPCR reactions. […] Reactions were run in a Quant Studio 6 qPCR instrument with default settings.

SMN2 Protein = assay: SMN Protein Assay (MSD); format: cell-based, human; conditions: SMA patient fibroblasts, 48 hours, 0.6 nM to 2.5 µM
Protocol: Spinal muscular atrophy (SMA) patient fibroblasts were plated in 96-well plates at 7,000 cells/well. Compounds were added in concentrations ranging from 0.6 nM to 2.5 µM, incubated for 48 hours and the cells were lysed with 100 µL of lysis buffer. 20 µL of lysate was used for SMN protein measurement by Mesoscale Discovery (MSD) assay developed by PharmOptima (Michigan). A standard curve prepared with SMN protein ranging from 1 µg/ml to 19.5pg/ml was used in each MSD plate to calculate the absolute SMN protein amount in each sample.

SMILES	pIC50 ([1]; Homo sapiens, Fibroblast)	pEC50 (SMN2 Protein)	pIC50 [1]
CCc1cc(=O)c2cc(-c3ncc(N(C)[C@H]4C[C@@H]5CCCC(N5)[C@H]4F)nn3)c(O)cc2o1 [Compound 116]	7.00 to 7.29	7.30 to 7.80	–
CCc1cc(=O)c2cc(-c3ncc(N(C)[C@@H]4C[C@H]5CCC(N5)[C@@H]4F)nn3)c(O)cc2o1 [Compound 117]	7.00 to 7.29	7.30 to 7.80	–
CCc1cc(=O)c2cc(-c3ncc(N(C)[C@H]4C[C@@H]5CCC(N5)[C@H]4F)nn3)c(O)cc2o1 [Compound 118]	7.82 to 11.00	7.82 to 11.00	–
CCn1ccc2cc(-c3ncc(N(C)[C@H]4C[C@@H]5CCCC(N5)[C@H]4F)nn3)c(O)cc2c1=O [Compound 121]	7.82 to 11.00	7.82 to 11.00	–
CCn1ccc2cc(-c3ncc(N(C)C4CC5CCCC(N5)C4F)nn3)c(O)cc2c1=O (stereo not shown) [Compound 122]	7.00 to 7.29	5.00 to 6.30	–
CN(c1cnc(-c2cc3ncn(C)c(=O)c3cc2O)nn1)C1CC2CCCC(N2)C1F (stereo not shown) [Compound 123]	7.82 to 11.00	7.82 to 11.00	–
CN(c1cnc(-c2cc3ncn(C)c(=O)c3cc2O)nn1)[C@@H]1C[C@H]2CCCC(N2)[C@@H]1F [Compound 124]	7.30 to 7.80	7.30 to 7.80	–
CCn1cnc2cc(-c3ncc(N(C)[C@H]4CC5CCC[C@@H](N5)[C@H]4F)nn3)c(O)cc2c1=O [Compound 125]	7.82 to 11.00	7.30 to 7.80	–
CCn1cnc2cc(-c3ncc(N(C)C4CC5CCCC(N5)C4F)nn3)c(O)cc2c1=O (stereo not shown) [Compound 126]	6.30 to 7.00	7.00 to 7.29	–
Cc1cc(=O)c2cc(O)c(-c3ncc(N(C)[C@H]4CC5CCC[C@@H](N5)[C@H]4F)nn3)cc2o1 [Compound 127]	7.82 to 11.00	7.82 to 11.00	–
Cc1cc(=O)c2cc(O)c(-c3ncc(N(C)C4CC5CCCC(N5)C4F)nn3)cc2o1 (stereo not shown) [Compound 128]	7.30 to 7.80	7.82 to 11.00	–
CN(c1cnc(-c2cc3cnn(C)c(=O)c3cc2O)nn1)C1CC2CCCC(N2)C1F (stereo not shown) [Compound 131]	–	7.82 to 11.00	7.82 to 11.00
CN(c1cnc(-c2cc3cnn(C)c(=O)c3cc2O)nn1)C1CC2CCCC(N2)C1F (stereo not shown) [Compound 132]	–	7.00 to 7.29	7.30 to 7.80
CN(c1cnc(-c2cc3ncn(C)c(=O)c3cc2O)nn1)C1CC2CC[C@](C)(N2)[C@@H]1F (stereo partly shown) [Compound 135]	7.82 to 11.00	7.82 to 11.00	–
CN(c1cnc(-c2cc3ncn(C)c(=O)c3cc2O)nn1)C1CC2CC[C@@](C)(N2)[C@H]1F (stereo partly shown) [Compound 136]	7.82 to 11.00	7.82 to 11.00	–
CN(c1cnc(-c2cc3c(F)cn(C)c(=O)c3cc2O)nn1)C1CC2CCCC(N2)[C@H]1F (stereo partly shown) [Compound 137]	7.82 to 11.00	7.82 to 11.00	–
CN(c1cnc(-c2cc3c(F)cn(C)c(=O)c3cc2O)nn1)C1CC2CCCC(N2)[C@@H]1F (stereo partly shown) [Compound 138]	7.30 to 7.80	7.82 to 11.00	–
CN(c1cnc(-c2cc3c(=O)n(C)cnc3cc2O)nn1)C1CC2CCC(N2)[C@H]1F (stereo partly shown) [Compound 139]	7.30 to 7.80	7.82 to 11.00	–
CN(c1cnc(-c2cc3c(=O)n(C)cnc3cc2O)nn1)C1CC2CCC(N2)[C@@H]1F (stereo partly shown) [Compound 140]	6.30 to 7.00	7.30 to 7.80	–
CN(c1cnc(-c2cc3ccn(C)c(=O)c3cc2O)nn1)C1CC2CC(F)(F)C(C1)N2 (stereo not shown) [Compound 141]	–	6.30 to 7.00	6.30 to 7.00
CN(c1cnc(-c2cc3ccn(C)c(=O)c3cc2O)nn1)C1CC2CC(F)(F)C(C1)N2 (stereo not shown) [Compound 142]	–	7.82 to 11.00	7.30 to 7.80
CN(c1cnc(-c2cc3ncn(C)c(=O)c3cc2O)nn1)C1CC2CC(F)(F)C(C1)N2 (stereo not shown) [Compound 143]	–	7.00 to 7.29	6.30 to 7.00
CN(c1cnc(-c2cc3ncn(C)c(=O)c3cc2O)nn1)C1CC2CC(F)(F)C(C1)N2 (stereo not shown) [Compound 144]	–	7.82 to 11.00	7.82 to 11.00
CN(c1cnc(-c2cc3ccn(C)c(=O)c3cc2O)nn1)C1CC2COCC(C1)N2 (stereo not shown) [Compound 147]	7.82 to 11.00	7.82 to 11.00	–
CN(c1cnc(-c2cc3ncn(C)c(=O)c3cc2O)nn1)C1CC2COCC(C1)N2 (stereo not shown) [Compound 148]	7.82 to 11.00	7.82 to 11.00	–
CN(c1cnc(-c2cc3cnn(C)c(=O)c3cc2O)nn1)C1CC2COCC(C1)N2 (stereo not shown) [Compound 149]	7.82 to 11.00	7.00 to 7.29	–
CN(c1cnc(-c2cc3ncn(C)c(=O)c3cc2O)nn1)[C@H]1C[C@]2(C)COC[C@](C)(C1)N2 [Compound 150]	7.82 to 11.00	7.82 to 11.00	–

SMILES	pIC50 ([1]; Homo sapiens, Fibroblast)	pEC50 (SMN2 Protein)	pIC50 [1]
CN(c1cnc(-c2cc3cnn(C)c(=O)c3cc2O)nn1)[C@H]1C[C@]2(C)COC[C@](C)(C1)N2 [Compound 151]	7.82 to 11.00	7.82 to 11.00	–
CN(c1cnc(-c2cc3ccn(C)c(=O)c3cc2O)nn1)[C@H]1C[C@]2(C)COC[C@](C)(C1)N2 [Compound 152]	7.82 to 11.00	7.82 to 11.00	–
CN(c1cnc(-c2cc3ccn(C(F)F)c(=O)c3cc2O)nn1)[C@H]1CC2CCC(N2)[C@H]1F (stereo partly shown) [Compound 155]	7.82 to 11.00	7.82 to 11.00	–
CN(c1cnc(-c2cc3ccn(C(F)F)c(=O)c3cc2O)nn1)[C@@H]1CC2CCC(N2)[C@@H]1F (stereo partly shown) [Compound 156]	7.30 to 7.80	7.82 to 11.00	–
[2H]C([2H])([2H])n1ccc2cc(-c3ncc(N(C)[C@H]4CC5CCC(N5)[C@H]4F)nn3)c(O)cc2c1=O (stereo partly shown) [Compound 157]	7.30 to 7.80	7.30 to 7.80	–
[2H]C([2H])([2H])n1ccc2cc(-c3ncc(N(C)[C@@H]4CC5CCC(N5)[C@@H]4F)nn3)c(O)cc2c1=O (stereo partly shown) [Compound 158]	7.82 to 11.00	7.82 to 11.00	–
Cc1cnc2cc(O)c(-c3ncc(N(C)[C@@H]4CC5CCCC(N5)[C@@H]4F)nn3)cc2n1 (stereo partly shown) [Compound 159]	7.30 to 7.80	7.82 to 11.00	–
Cc1cnc2cc(O)c(-c3ncc(N(C)[C@H]4CC5CCCC(N5)[C@H]4F)nn3)cc2n1 (stereo partly shown) [Compound 160]	6.30 to 7.00	6.30 to 7.00	–
CN(c1cnc(-c2cc3oc(C(F)(F)F)cc(=O)c3cc2O)nn1)[C@@H]1CC2CCCC(N2)[C@@H]1F (stereo partly shown) [Compound 161]	7.00 to 7.29	7.82 to 11.00	–
CCN1C=C(F)c2cc(-c3ncc(N(C)[C@@H]4CC5CCC(N5)[C@@H]4F)nn3)c(O)cc2O1 (stereo partly shown) [Compound 162]	7.00 to 7.29	7.82 to 11.00	–
CCn1cc(F)c2cc(-c3ncc(N(C)[C@H]4C[C@@H]5CCC(N5)[C@H]4F)nn3)c(O)cc2c1=O [Compound 163, 2-Ethyl-4-fluoro-6-(6-{[(2R,3S,5S)-2-fluoro-8-azabicyclo[3.2.1]octan-3-yl](methyl)amino}-1,2,4-triazin-3-yl)-7-hydroayisoquinolin-1-one]	7.82 to 11.00	7.82 to 11.00	–
CCn1ncc2cc(-c3ncc(N(C)[C@@H]4CC5CC[C@H](N5)[C@@H]4F)nn3)c(O)cc2c1=O [Compound 164]	7.00 to 7.29	7.30 to 7.80	–
CCn1ncc2cc(-c3ncc(N(C)[C@H]4C[C@@H]5CCC(N5)[C@H]4F)nn3)c(O)cc2c1=O [Compound 165]	7.82 to 11.00	7.82 to 11.00	–
CN(c1cnc(-c2cc3oc(C(F)(F)F)cc(=O)c3cc2O)nn1)[C@H]1C[C@@H]2CCCC(N2)[C@H]1F [Compound 166]	7.30 to 7.80	7.82 to 11.00	–
[2H]C([2H])([2H])N(c1cnc(-c2cc3ccn(C([2H])([2H])[2H])c(=O)c3cc2O)nn1)[C@H]1C[C@@H]2CCC(N2)[C@H]1F [Compound 167]	7.82 to 11.00	7.82 to 11.00	–
[2H]C([2H])([2H])N(c1cnc(-c2cc3ccn(C([2H])([2H])[2H])c(=O)c3cc2O)nn1)[C@@H]1CC2CC[C@H](N2)[C@@H]1F [Compound 168]	7.00 to 7.29	7.82 to 11.00	–
CN(c1cnc(-c2cc3cc[nH]c(=O)c3cc2O)nn1)[C@H]1C[C@@H]2CCC(N2)[C@H]1F [Compound 169]	7.30 to 7.80	7.82 to 11.00	–
CN(c1cnc(-c2cc3cc[nH]c(=O)c3cc2O)nn1)[C@@H]1CC2CC[C@H](N2)[C@@H]1F [Compound 170]	7.00 to 7.29	7.30 to 7.80	–
CN(c1cnc(-c2cc3ccn(C)c(=O)c3cc2O)nn1)[C@H]1C[C@@H]2CC[C@@](C)(N2)[C@H]1F [Compound 171]	7.82 to 11.00	7.82 to 11.00	–
CN(c1cnc(-c2cc3ccn(C)c(=O)c3cc2O)nn1)[C@@H]1CC2CC[C@](C)(N2)[C@@H]1F [Compound 172]	7.82 to 11.00	7.82 to 11.00	–
CN(c1cnc(-c2cc3ccn(C)c(=O)c3cc2O)nn1)[C@H]1C[C@]2(C)CCC(N2)[C@H]1F [Compound 173]	7.30 to 7.80	7.30 to 7.80	–
CN(c1cnc(-c2cc3ccn(C)c(=O)c3cc2O)nn1)[C@@H]1C[C@@]2(C)CC[C@H](N2)[C@@H]1F [Compound 174]	7.82 to 11.00	7.82 to 11.00	–
[2H]C([2H])([2H])N(c1cnc(-c2cc3ncn(C([2H])([2H])[2H])c(=O)c3cc2O)nn1)[C@H]1C[C@@H]2CCC(N2)[C@H]1F [Compound 175]	7.82 to 11.00	7.82 to 11.00	–
[2H]C([2H])([2H])N(c1cnc(-c2cc3ncn(C([2H])([2H])[2H])c(=O)c3cc2O)nn1)[C@@H]1CC2CC[C@H](N2)[C@@H]1F [Compound 176]	7.30 to 7.80	7.82 to 11.00	–
[2H]C([2H])([2H])n1cnc2cc(-c3ncc(N(C)[C@H]4C[C@@H]5CCC(N5)[C@H]4F)nn3)c(O)cc2c1=O [Compound 177]	7.82 to 11.00	7.82 to 11.00	–
[2H]C([2H])([2H])n1cnc2cc(-c3ncc(N(C)[C@@H]4CC5CC[C@H](N5)[C@@H]4F)nn3)c(O)cc2c1=O [Compound 178]	7.82 to 11.00	7.82 to 11.00	–
